≈ marks a conversion by molar mass, not a printed value.
Assays:
[1] = topical exposure for 4 hours; cited from earlier work
[2] = test system: Candida albicans ATCC 10231; experiment: microtube dilution MIC; type: cell-based; conditions: ATCC10231, Example 9, 48 hrs incubation
Protocol: (§1) In brief, a standard inoculum (100 μL of a 1:200 dilution of a 0.5 MacFarland turbidity standard) of each microorganism was prepared in standard growth media and added to equal volumes of two-fold serial dilutions of SC and SC-Gel. MICs were determined visually as the highest dilution of SC, or SC-Gel, that inhibited growth after incubating the mixtures overnight at 35° C., except for Candida albicans, which required 48 hrs incubation. […] The MIC dilution was converted to μg/mL by multiplying the neat drug (Ag^+) concentration by the dilution appropriate dilution factor.
In brief, a standard inoculum (100 μL of a 1:200 dilution of a 0.5 MacFarland turbidity standard) of each microorganism was prepared in standard growth media and added to equal volumes of two-fold serial dilutions of SC and SC-Gel. MICs were determined visually as the highest dilution of SC, or SC-Gel, that inhibited growth after incubating the mixtures overnight at 35° C., except for C. albicans, which required 48 hrs incubation. […] The MIC dilution was converted to μg/mL by multiplying the neat drug (Ag^+) concentration by the dilution appropriate dilution factor.

[3] = test system: Pseudomonas aeruginosa ATCC 27853; experiment: microtube dilution MIC; type: cell-based; conditions: Example 13; P. aeruginosa ATCC 27853
Protocol: as §1
In brief, a standard inoculum (100 μL of a 1:200 dilution of a 0.5 MacFarland turbidity standard) of each microorganism was prepared in standard growth media and added to equal volumes of two-fold serial dilutions of SC and SC-Gel. MICs were determined visually as the highest dilution of SC, or SC-Gel, that inhibited growth after incubating the mixtures overnight at 35° C., except for C. albicans, which required 48 hrs incubation. […] The MIC dilution was converted to μg/mL by multiplying the neat drug (Ag^+) concentration by the dilution appropriate dilution factor. […]

[4] = test system: Escherichia coli ATCC 25922; experiment: microtube dilution MIC; type: cell-based; conditions: Example 13; E. coli ATCC 25922
Protocol: as §1
The method described in Example 8 for minimum inhibitory concentration (MIC) was utilized for evaluation of activity of the compositions against Staphylococcus aureus and Streptococcus pyogenes (Gram-positive cocci) and Pseudomonas aeruginosa and Escherichia coli (Gram-negative rod) organisms.

In the case of `O=C(O)CN(CCN(CC(=O)O)CC(=O)O)CC(=O)O.[Na].[Na]` [Disodium EDTA, disodium ethylenediaminetetraacetic acid], the “reactivity in human patch test” value [1] is given as “no reactivity”.
`Clc1ccc(COC(Cn2ccnc2)c2ccc(Cl)cc2Cl)c(Cl)c1` (stereo not shown) [MZL, Miconazole] gave an MIC [2] of 0.49 µg/mL (≈ 1.18 µM).
In the case of `O=C([O-])CC(O)(CC(=O)[O-])C(=O)[O-].[Ag+].[Ag+].[Ag+]` [SC Liquid, silver citrate], the “Minimal Inhibitory Concentration (MIC)” value [3] is reported as 11.25 µg/mL and the “Minimal Inhibitory Concentration (MIC)” value [4] is reported as 7.5 µg/mL.
